Earlier results on one compound are cited in PMC3401522 (ACS Chemical Biology, 2011).

Broadly, the IC50 is the concentration at which inhibition is half-maximal.

SMILES strings stand for the structures.

In the data set the test system is JIP-JNK interaction sites.

On to `O=c1[nH]nc(Sc2ncc([N+](=O)[O-])s2)n1-c1ccc2c(c1)OCCO2` [BI-78D3], for which the IC50 was 0.5 µM.
